Measurements published in patent publication US11950907B2, “Method for non-invasive monitoring of fluorescent tracer agent with diffuse reflecting medium with time-varying optical properties” (MediBeacon Inc., priority 2017, dated 2024).

What was measured:
[1] = Transdermal fluorescence monitoring of renal elimination of the agent during perturbations (Example 1); type: in vivo; details: pig, time points later than 2 hours after agent injection, no baseline subtraction, FIG. 21B
Source text: A system similar to the system 200 described herein above was used to monitor the fluorescence produced during the renal elimination of an exogenous fluorescent agent, MB-102, using the methods described herein above, in particular the diffuse reflectance data correction method.
FIG. 21A is a graph summarizing the changes in the magnitude of the raw fluorescence signal (Flr) just prior to injection of the MB-102 fluorescent agent into a pig and for about six hours post-injection. During the post-equilibration portion, corresponding to a time of about 13:45 in FIG. 21A, the pig was subjected to a series of perturbations selected to vary the optical properties of the pig's skin and/or underlying tissues: administration of blood pressure medications to induce vasodilation/vasorestriction 2102, application of pressure to compress the tissue 2104, lateral movement of the sensor head 2106, SpO2 decrease 2108, SpO2 decrease 2110, remove/replace sensor head 2112/2114, and skin cooling 2116.
FIG. 21B is a graph summarizing the corrected intrinsic fluorescence signal (IF) corrected as described herein above with no baseline subtraction.

[2] = Transdermal fluorescence measurements from a patient before and after injection of the agent (FIG. 15); type: in vivo; details: about 10 hours after injection, after peak concentration
Procedure: FIG. 15 is a graph of fluorescence measurements obtained from a patient over a period of about 10 hours after injection of an exogenous fluorescence agent (MB-102) after a pre-injection period of about 3 hours. Referring to FIG. 15, the pre-injection/baseline period 1502 is characterized by a relatively low and stable fluorescence level, likely due the absence of […] fluorescent agent in the blood of the patient. […] Without being limited to any particular theory, it is thought the injected exogenous fluorescence agent is likely equilibrated across the extra-cellular space once the decay of the fluorescence is well-described by a […] (or a line on semi-log plot).

[3] = Absorption and emission spectra of the exogenous fluorescent agent (FIG. 3); type: physicochemical
Source text: By way of illustrative example, FIG. 3 is a graph summarizing the absorption spectra for HbO2 and Hb, as well as the absorption and emission spectra of frequency spectra of MB-102, an exogenous fluorescent agent in one aspect. Emission spectra for a blue LED light source and a green LED light source are also shown superimposed over the other spectra of FIG. 3. In this aspect, the system 200 may include a blue LED as the first light source 218, and the excitatory wavelength for the system 200 may be the isosbestic wavelength of about 450 nm. […] However, at wavelengths above about 500 nm, the HbO2/Hb spectra are less steeply sloped, and a broader band light source including, but not limited to, an LED with a bandpass filter may suffice for use as a first light source 218.
In another aspect, the excitatory wave length may be selected to enhance the contrast in light absorbance between the exogenous fluorescent agent and the chromophores within the tissues of the patient 202. […] Without being limited to any particular theory, a higher proportion of light illuminating the tissue of the patient 202 at a wavelength of about 450 nm will be absorbed by the MB-102 relative to the HbO2 and Hb, thus enhancing the efficiency of absorption by the MB-102 and reducing the intensity of light at the excitatory wavelength needed to elicit a detectable fluorescence signal. […]

Nc1nc(C(=O)N[C@H](CO)C(=O)O)c(N)nc1C(=O)N[C@H](CO)C(=O)O [MB-102]
time course of corrected intrinsic fluorescence (IF) signal [1]: expected single-exponential decay of the signal
time course of fluorescence after injection [2]: relatively smooth exponential decrease
light absorption relative to HbO2 and Hb ([3]; at the isosbestic wavelength of 452 nm): more than three-fold higher
emission peak wavelength ([3]; emission spectrum): about 550 nm
